# Earlier results, collected in patent US20090285878A1, “Compositions and methods for stabilizing liposomal drug formulations” (Tekmira Pharmaceuticals Corporation, priority 2004, published 2009).
structure (smiles),measurement,setting,value
CC[C@@]1(O)C(=O)OCc2c1cc1n(c2=O)Cc2cc3c(CN(C)C)c(O)ccc3nc2-1 [Topotecan],Lactone hydrolyzed,above pH 9,more than 95%
same,Open (carboxylate) form of lactone ring,below pH 4,no open form is present
